# According to ChEMBL document CHEMBL3507680, “University of Dundee, Gates Library screen for HepG2 cell viability”:
# Experiment: Human HepG2 cell viability assay in 384 well format
# Type: toxicity, cell-based
# Design: dose 125 nL, time 70.5 hour; cytotoxicity at 70.5 h: concentration not given beside the values
# Conditions: HepG2 cells, read-out: Inhibition
row,Structure (SMILES),cytotoxicity at 70.5 h
1,CN(C)C(=O)N1C[C@@H]2CC[C@H](C1)N(S(=O)(=O)c1cccnc1)C2,-9.57%
2,Cc1noc(C)c1C(=O)N(C)C(C)c1cccnc1 (stereo not drawn),-15.6%
3,O=C1[C@H]2CN(C3CCOCC3)C[C@H]2CN1Cc1ccncc1,-8.99%
4,COCCOc1ccccc1C(=O)N(C)Cc1ncc(C)c(OC)c1C,-5.65%
5,Cc1nsc(NC(=O)N2CCCCC2CCCO)n1 (stereo not drawn),-1.47%
6,c1ccc(OCCNC2=NCCCN2)cc1,24.2%
7,CN1CCC(N(CCc2ccccc2)C(=O)c2ccc(C#N)cc2)CC1,-7.31%
8,Cc1ncc(CNC2CCCN(Cc3noc(C4CC4)n3)C2)s1 (stereo not drawn),-2.63%
9,N#Cc1cccc(N2CCC(c3nccn3Cc3cscn3)CC2)n1,-2.31%
10,COCCC(=O)N1CCC2(CC1)CC(c1ccccc1)CN(C1CC1)C2 (stereo not drawn),0.742%
11,COCCN1CCOCC2(CCCN(Cc3cccc(F)c3)C2)C1 (stereo not drawn),-5.38%
12,COCCCNC(=O)c1cn(C(C)(C)C)c2ncccc12,-5.22%
13,Nc1nccnc1C1CN(Cc2ccc(OCC(=O)O)cc2)CCO1 (stereo not drawn),0.531%
14,CN(CCc1cccs1)C1CCCN(Cc2noc(C3CC3)n2)C1 (stereo not drawn),8.79%
15,Cc1noc(C)c1NC(=O)N1CCC(NC(=O)OC(C)(C)C)CC1,-5.75%
16,CCc1noc(CC)c1CNC(=O)Nc1cccc([S+](C)[O-])c1 (stereo not drawn),-1.9%
17,O=C(NCc1cccnc1)c1ccc2nccn2c1,1.82%
18,COC(=O)c1cc(OCC2CCC2)cc(C(=O)N[C@H]2CC[C@H](O)CC2)c1,15.3%
19,O=C(c1nn(-c2ccccc2F)cc1O)N1CCCSCC1,2.69%
20,CC(C)N(Cc1nccn1C)C(=O)c1cnc(O)cn1,-3.41%
21,Cc1occc1C(=O)N1C[C@@H]2[C@@H](C1)OCC(=O)N2Cc1cccnc1,-2.83%
22,O=c1[nH]nc(C2CC2)n1-c1cccc(Cl)c1,-4.41%
23,CC(C)c1nccc(N2CCN(CC(=O)N3CCOCC3)CC2)n1,-10.5%

row,Structure (SMILES),cytotoxicity at 70.5 h
1,CC(C)(C)n1cc(C(=O)NCCCn2ccnc2)c2cccnc21,-4.7%
2,COCCN1C(=O)CO[C@H]2CN(Cc3ccccc3Cl)C[C@@H]21,-9.25%
3,O=c1c2cccnc2ccn1Cc1nccn1C1CC1,-10.2%
4,CCN1CCN(c2ccc(C(=O)NC(C)CCOC)cc2)CC1 (stereo not drawn),23.2%
5,Cc1ccccc1Cn1cnc2oc(C)c(C(=O)O)c2c1=O,-11.3%
6,CCn1nc(C)c2nc(C(C)C)nc(NC)c21,20.9%
7,O=C(NCC1CC1)c1nnc2ccc(Cl)cc2n1,-13.3%
8,CNC(=O)c1cc2c(nc1N(C)C)CCN(S(=O)(=O)CC(C)C)CC2,-12.2%
9,COc1ccc(OC)c(C(C)NC(=O)c2nn(C)c(C)c2Br)c1 (stereo not drawn),27.1%
10,O=C(NC1CC1)N1CCc2ccc(=O)n(Cc3ccncc3)c2CC1,12.1%
11,CC(C)NC(=O)NC(C)c1nc(-c2ccccc2)cs1 (stereo not drawn),-6.77%
12,Cc1ccc(N2CCN(C(=O)COc3ncccn3)CC2)nn1,-7.37%
13,CC1CCc2nc(O)c(C(=O)NCc3cccc(F)c3)cc2C1 (stereo not drawn),-3.12%
14,CCn1ncc2c1C(COC)CN(c1ncc(F)cn1)C2 (stereo not drawn),-9.93%
15,Cc1noc([C@@]23CCO[C@@H]2CCN(C(=O)c2sccc2C)C3)n1,-1.6%
16,COCc1ccccc1CNC(=O)CN1CCC2(CCOC2)C1 (stereo not drawn),25%
17,Cc1nc(CNC(=O)NCC(O)c2ccc(F)cc2)cs1 (stereo not drawn),-3.15%
18,CN1CCC2(CC1)C(=O)N(CC1CC1)c1ccccc12,-9.7%
19,CCOCCC(=O)NCCNc1nccc(C(F)(F)F)n1,2.23%
20,COC(=O)c1cc(NCC(=O)NC(N)=O)cc(C(F)(F)F)c1,0.625%
21,O=C(c1cccnc1)N1CCC2(CCN(C(=O)N3CCCC3)CC2)C1,-0.226%
22,CCn1nc(C)c(C(=O)N2C[C@@H](CN(C)CCOC)[C@@H](CO)C2)c1C,-6.72%
23,CC(NC(=O)NCCCN(C(C)C)S(C)(=O)=O)c1ccncc1 (stereo not drawn),-2.51%

row,Structure (SMILES),cytotoxicity at 70.5 h
1,Cc1cc(NCCOCCS(C)(=O)=O)nc2ccccc12,1.59%
2,CC(C)C[C@H](N)COc1cccc(F)c1Oc1ccc(Cl)cc1,26.2%
3,COCc1nc(NC(C)c2c(C)n[nH]c2C)c2cnn(C)c2n1 (stereo not drawn),-5.38%
4,CN(CCN1CCCCC1=O)Cc1cc2cc3c(cc2[nH]c1=O)OCO3,-8.86%
5,O=C(c1ccncc1)N1CCC(Cc2cnc3[nH]ccc3c2)CC1,-5.49%
6,C=C(C)CSc1nnc(CCNC(=O)OC(C)(C)C)o1,-12.3%
7,CS(=O)(=O)NCc1cnc2n1CCN(Cc1ccco1)CC2,-6.2%
8,CC(C)CS(=O)(=O)N1CCC2(CN(c3cccc(F)c3)C(=O)CN2C)C1 (stereo not drawn),19.6%
9,O=C(CCCOc1ccccc1F)NCCCC(=O)Nc1cn[nH]c1,-3.66%
10,CC(=O)N1CCCC2(CN(Cc3ccncc3)CCO2)C1 (stereo not drawn),-1.7%
11,CCC(OC)C(=O)N1CCC2(CC1)c1nc[nH]c1CCN2S(C)(=O)=O (stereo not drawn),32.6%
12,CCc1cc(NC(=O)N2CCC(Oc3cccnc3)C2)n(C)n1 (stereo not drawn),-6.65%
13,COc1ccccc1C(C)(C)NCc1ccco1,-19.1%
14,CN(C)c1cc(C2CCCN(C(=O)Cn3cc(Cl)cn3)C2)ccn1 (stereo not drawn),-4.03%
15,Cc1nnc(CN(Cc2ccc3c(c2)OCO3)C2CCC(C)CC2)o1 (stereo not drawn),-1.97%
16,COc1ccc(F)c(F)c1CN1CCC2(CC1)[C@H](O)C[C@@H]2OCCN,-7.39%
17,CC(C)Oc1ccc(CNC(=O)NCc2ccncc2)cc1F,-10.8%
18,Cc1nn(C)c(C)c1C(=O)N1CCN(C(=O)CCC2CCCCC2)CC1,-13.4%
19,Cn1cnnc1C1CCN(C(=O)c2cc3c(s2)CCCC3)CC1,14.6%
20,NC(=O)NC(=O)CCN1CCN(c2nccs2)CC1,19.6%
21,Cc1ncc(CC(=O)N2CCCC(COc3ccc(F)cc3)C2)c(=O)[nH]1 (stereo not drawn),2.89%
22,c1cc(OCc2ccc3c(c2)OCCO3)ccc1CNC1CC1,22.8%
23,CSc1ccccc1NC(=O)C1CN(C(=O)c2ccc3c(c2)OCO3)C1,0.521%

row,Structure (SMILES),cytotoxicity at 70.5 h
1,Cc1nn(C)c2cn(C(C)C(=O)NCc3ccncc3)nc12 (stereo not drawn),-2.93%
2,Cc1ccccc1C(=O)N1CC[C@H](O)[C@@H](N2CCOCC2)CC1,-4.48%
3,CCCOC1CCCN(C(=O)c2[nH]nc(C)c2Br)C1 (stereo not drawn),-8.95%
4,COC(=O)CCN(C)C(=O)c1ccc(-c2cscn2)cc1,4.45%
5,CC(C)(C)c1noc(CNc2ccccc2N2CCC(O)CC2)n1,-8.28%
6,Cc1nc(C)c(CN(C)C2CCN(C(=O)OC(C)(C)C)CC2)s1,-7.19%
7,Cc1noc(C)c1CNC(=O)N1CCC(NS(C)(=O)=O)CC1,-3.15%
8,Cc1cc(-c2ccc(=O)n(C3CCN(C(=O)C4CC4)CC3)n2)c(C)o1,-2.33%
9,CCC(CNC(=O)Nc1cnn(CC)c1)N1CCCC1 (stereo not drawn),-3.1%
10,CC(=O)NCC(=O)N1CCn2cc(CN3CCN(C)CC3)nc2C1,-11.5%
11,CC(C)N1CC(C(=O)NCc2cccnc2-n2cccn2)CC1=O (stereo not drawn),-11%
12,c1ccc(N2CCC(NCc3cccc4cn[nH]c34)C2)cc1 (stereo not drawn),7.7%
13,CC(=O)c1ccc(N2CCCC(CO)(CCc3ccccc3)C2)nc1 (stereo not drawn),-1.42%
14,CSc1ncccc1C(=O)N1CCC(c2nc3c(C)cccc3[nH]2)CC1,12.8%
15,Cn1cc(C2CCCN2Cc2csc(-c3ccsc3)n2)cn1 (stereo not drawn),-0.271%
16,COCc1cccc(NCc2cccnc2)c1,-10.4%
17,COC[C@@H]1CCCN1C(=O)c1cc(-c2cccc(OC)c2)n[nH]1,-2.07%
18,COCCN1CC2(CCCN(C(=O)NCc3ccccc3)C2)CCC1=O (stereo not drawn),0.704%
19,CO[C@@H]1CCN(Cc2ccccn2)[C@@H]2CN(Cc3ccco3)C[C@@H]21,32.3%
20,NCCn1nc(C2CCN(Cc3ccccc3)C2)c2nccnc21 (stereo not drawn),0.0423%
21,CN[C@@H](CO)C(=O)NCc1cc2n(n1)CCCN(C1CCCCC1)C2,-6.96%
22,O=C(O)c1cc2c(nc1O)CC(c1cccc(Cl)c1)CC2=O (stereo not drawn),-2.93%
23,O=C(Nc1cnc2n1CCCC2)c1cccc(-n2cnnc2)c1,-16.8%

row,Structure (SMILES),cytotoxicity at 70.5 h
1,Cn1cc(CN2CCN3C[C@H](Oc4cccnc4)C[C@H]3C2)cn1,-1.85%
2,COc1ccc(C2CCCN2C(=O)c2ccc(=O)n(C)c2)cc1OC (stereo not drawn),-6.18%
3,COCCN1C[C@H]2CN(C(=O)C3CC3)CCN2C1=O,3.48%
4,CCCNC(=O)CNC(=O)CCc1ccccc1Br,-7.6%
5,COc1cc(C2C3=C(COC3=O)Nc3[nH]nc(C)c32)cc2c1OCO2 (stereo not drawn),9.37%
6,CC(C)OCCCNS(=O)(=O)c1ccc2c(c1)NC(=O)C(C)O2 (stereo not drawn),-4.7%
7,COc1cccc(CC(=O)N2Cc3nccn3CC(CN(C)C)C2)c1 (stereo not drawn),-0.154%
8,CN1CCC(NC(=O)Nc2cnn(-c3ccccc3Cl)c2)CC1,-5.23%
9,CN1CCCc2c1nc1c(c2N)CCCC1,23%
10,O=c1[nH]c2c(c(=O)n1C1CCCCC1)CCC2NCCc1ccccc1 (stereo not drawn),-17.4%
11,CS(=O)(=O)NC[C@]12COC[C@H]1CN(CC1CCC1)C2,-12.2%
12,COc1cc(C)nc(N2CCN(C(=O)c3ccccc3C)CC2)n1,43.9%
13,O=C(O)c1cc(-n2cc3c(n2)CCC3)cc(S(=O)(=O)N2CCOCC2)c1,3.53%
14,c1nc2onc(C3CC3)c2cc1-c1nnc(C2CC2)o1,1.7%
15,Cc1cc(N2CCC(Cc3cccnc3)C2)ncn1 (stereo not drawn),-3.49%
16,CCc1noc(CN(CC)C(=O)c2ccc3ncsc3c2)n1,4.54%
17,O=C(c1ccsc1)N1CCO[C@@H]2CN(Cc3ccco3)CC[C@@H]2C1,0.973%
18,COCCNC(=O)c1cc(S(=O)(=O)N2CCCCCC2)cs1,15.3%
19,CC1=Nc2c(c(=O)[nH]n2C(C)C)C(c2cccc(OC(F)F)c2)S1 (stereo not drawn),-17.2%
20,Cc1ccc(CCC(=O)N2CCn3c(nnc3C(C)C)C2)cc1Cl,24.9%
21,COc1ccc(-n2ccc(C(=O)NCCN3CCCCC3C)n2)cc1 (stereo not drawn),7.59%
